Laboratory results as given in patent publication US9695155B2, “Herbicidal substituted pyrimidinyloxy benzene compounds” (E. I. DU PONT DE NEMOURS AND COMPANY, priority 2013, dated 2017).

How the values were obtained:
large (Lg) crabgrass = test: Test A postemergence; assay type: in vivo, Digitaria sanguinalis
In short: (§1)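 Greenhouse pot test, loam/sand soil. Formulation: non-phytotoxic solvent mix plus surfactant. Pre: directed spray onto soil after sowing. Post: plants at 1–2 leaf, 2–10 cm. Rated visually vs untreated controls at ~10 d, 0 (no effect) to 100 (complete control).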

kochia = test: Test C postemergence; assay type: in vivo, Kochia scoparia; settings: for Plant response rating (0 to 100), Kochia: 0 is no effect, 100 is complete control
Source text: (§2) Seeds of plant species selected from blackgrass (Alopecurus myosuroides), Italian ryegrass (Lolium multiflorum), wheat, winter (winter wheat, Triticum aestivum), galium (catchweed bedstraw, Galium aparine), corn (Zea mays), large (Lg) crabgrass (Digitaria sanguinalis), giant foxtail (Setaria faberii), johnsongrass (Sorghum halepense), lambsquarters (Chenopodium album), morningglory (Ipomoea coccinea), yellow nutsedge (Cyperus esculentus), pigweed (Amaranthus retroflexus), ragweed (common ragweed, Ambrosia elatior), soybean (Glycine max), barnyardgrass (Echinochloa crus-galli), oilseed rape (Brassica napus), waterhemp (common waterhemp, Amaranthus rudis), kochia (Kochia scoparia), wild oat (Avena fatua), surinam grass (Brachiaria decumbens), foxtail, green (green foxtail, Setaria viridis), goosegrass (Eleusine indica), bromegrass, downy (downy bromegrass, Bromus tectorum), nightshade (eastern black nightshade, Solanum ptycanthum), cocklebur (common cocklebur, Xanthium strumarium), cupgrass, woolly (woolly cupgrass, Eriochloa villosa), bermudagrass (Cynodon dactylon), sunflower, (common oilseed sunflower, Helianthus annuus), Russian thistle (Salsola kali), and velvetleaf (Abutilon theophrasti) were planted into a blend of loam soil and sand and treated preemergence with test chemicals formulated in a non-phytotoxic solvent mixture which included a surfactant.
(§3) At the same time, plants selected from these crop and weed species and also barley, winter (winter barley, Hordeum vulgare), windgrass (Apera spica-venti), chickweed (common chickweed, Stellaria media), deadnettle (henbit deadnettle, Lamium amplexicaule), and canarygrass (littleseed canarygrass, Phalaris minor) were planted in pots containing Redi-Earth® planting medium (Scotts Company, 14111 Scottslawn Road, Marysville, Ohio 43041) comprising spaghnum peat moss, vermiculite, wetting agent and starter nutrients and treated with postemergence applications of test chemicals formulated in the same manner. Plants ranged in height from 2 to 18 cm (1- to 4-leaf stage) for postemergence treatments. Treated plants and controls were maintained in a greenhouse for 13 to 15 days, after which time all species were compared to controls and visually evaluated. Plant response ratings, summarized in Table C, are based on a scale of 0 to 100 where 0 is no effect and 100 is complete control. A dash (-) response means no test result.

corn = test: Test A postemergence; assay type: in vivo, Zea mays
In short: as §1

velvetleaf = test: Test C postemergence; assay type: in vivo, Abutilon theophrasti; settings: for Plant response rating (0 to 100), Velvetleaf: 0 is no effect, 100 is complete control
Source text: as §2, §3

morningglory = test: Test A postemergence; assay type: in vivo, Ipomoea spp.; settings: 0 to 100 scale where 0 is no effect and 100 is complete control
In short: as §1

chickweed = test: Test C postemergence; assay type: in vivo, Stellaria media; settings: for Plant response rating (0 to 100), Chickweed: 0 is no effect, 100 is complete control
In short: (§4)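 Seeds are planted in blended loam soil and sand and treated preemergence, while seedlings in a peat moss/vermiculite medium receive postemergence sprays at 2 to 18 cm height. All plants stay in the greenhouse for 13 to 15 days before visual comparison with controls on a 0–100 scale.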

giant foxtail = test: Test A postemergence; assay type: in vivo, Setaria faberii; settings: 0 to 100 scale where 0 is no effect and 100 is complete control
In short: as §1

Italian ryegrass = test: Test C postemergence; assay type: in vivo, Lolium multiflorum; settings: for Plant response rating (0 to 100), Ryegrass, Italian: 0 is no effect, 100 is complete control
In short: as §4

pigweed = test: Test C postemergence; assay type: in vivo, Amaranthus retroflexus; settings: for Plant response rating (0 to 100), Pigweed: 0 is no effect, 100 is complete control
Source text: as §2, §3

[1] = 125 g ai/ha, 0 to 100 scale where 0 is no effect and 100 is complete control
[2] = 500 g ai/ha, 0 to 100 scale where 0 is no effect and 100 is complete control
[3] = 31 g ai/ha, postemergence, visual rating, scale 0 to 100 (0 no effect, 100 complete control), 13 to 15 days
[4] = 125 g ai/ha, postemergence, visual rating, scale 0 to 100 (0 no effect, 100 complete control)
[5] = Postemergence, 62 g ai/ha, scale 0 to 100 (0 no effect, 100 complete control), 13 to 15 days
[6] = Postemergence, 62 g ai/ha, scale 0 to 100 (0 no effect, 100 complete control)

## Clc1cnc(Oc2cccc(Br)c2-n2cc(Cl)cn2)nc1 [Compound 221]
Large (Lg) crabgrass; [1]
  Crabgrass, Large plant response rating: 60
Large (Lg) crabgrass; [2]
  Plant response rating, Crabgrass, Large: 100
kochia; 16 g ai/ha, postemergence
  Plant response rating (0 to 100), Kochia: 90
kochia; [3]
  Kochia plant response rating: 80
kochia; [4]
  Plant response rating, Kochia: 95
kochia; [5]
  Plant response rating, Kochia: 95
corn; [1]
  Corn plant response rating: 10
corn; [2]
  Plant response rating, Corn: 50
velvetleaf; 16 g ai/ha, postemergence
  Plant response rating (0 to 100), Velvetleaf: 35
velvetleaf; [3]
  Velvetleaf plant response rating: 35
velvetleaf; [4]
  Plant response rating, Velvetleaf: 75
velvetleaf; [5]
  Plant response rating, Velvetleaf: 45
morningglory; 125 g ai/ha
  Morningglory plant response rating: 90
morningglory; 500 g ai/ha
  Plant response rating, Morningglory: 100
chickweed; 16 g ai/ha, postemergence
  Plant response rating (0 to 100), Chickweed: 20
chickweed; [3]
  Chickweed plant response rating: 60
chickweed; [4]
  Plant response rating, Chickweed: 50
chickweed; [5]
  Plant response rating, Chickweed: 60
Giant foxtail; 125 g ai/ha
  Foxtail, Giant plant response rating: 50
Giant foxtail; 500 g ai/ha
  Plant response rating, Foxtail, Giant: 90
Italian ryegrass; 16 g ai/ha, postemergence
  Plant response rating (0 to 100), Ryegrass, Italian: 0
Italian ryegrass; [3]
  Ryegrass, Italian plant response rating: 0
Italian ryegrass; [4]
  Plant response rating, Ryegrass, Italian: 5
Italian ryegrass; [5]
  Plant response rating, Ryegrass, Italian: 5
pigweed; 16 g ai/ha, postemergence
  Plant response rating (0 to 100), Pigweed: 60
pigweed; [3]
  Pigweed plant response rating: 75
pigweed; [4]
  Plant response rating, Pigweed: 85
pigweed; [5]
  Plant response rating, Pigweed: 50

## FC(F)c1cnn(-c2ccccc2Oc2ncc(Cl)cn2)c1 [Compound 80, 5-chloro-2-[2-[4-(difluoromethyl)-1H-pyrazol-1-yl]phenoxy]pyrimidine]
Large (Lg) crabgrass; Digitaria sanguinalis, post-emergence, 240 h, 125 g ai/ha, 0 to 100 scale where 0 is no effect and 100 is complete control, read-out: Plant response rating, Crabgrass, Large
  pest or weed control at 125 g/ha: 80%
Large (Lg) crabgrass; Digitaria sanguinalis, post-emergence, 240 h, 500 g ai/ha, 0 to 100 scale, 0 no effect, 100 complete control, read-out: Plant response rating Crabgrass, Large
  pest or weed control at 500 g/ha: 100%
kochia; Bassia scoparia, post-emergence, 16 g ai/ha, postemergence, visual rating, scale 0 to 100 (0 no effect, 100 complete control), 13 to 15 days, read-out: Kochia plant response rating
  pest or weed control at 16 g/ha: 60%
kochia; Bassia scoparia, post-emergence, 125 g ai/ha, postemergence, read-out: Plant response rating (0 to 100), Kochia
  pest or weed control at 125 g/ha: 95%
kochia; Bassia scoparia, post-emergence, Postemergence, 31 g ai/ha, scale 0 to 100 (0 no effect, 100 complete control), 13 to 15 days, read-out: Plant response rating, Kochia
  pest or weed control at 31 g/ha: 90%
kochia; Bassia scoparia, post-emergence, Postemergence, 62 g ai/ha, scale 0 to 100 (0 no effect, 100 complete control), read-out: Plant response rating, Kochia
  pest or weed control at 62 g/ha: 95%
corn; Zea mays, post-emergence, 240 h, 125 g ai/ha, 0 to 100 scale where 0 is no effect and 100 is complete control
  Corn plant response rating (crop injury, 0 = no effect, 100 = complete kill) at 125 g/ha: 70%
corn; Zea mays, post-emergence, 240 h, 500 g ai/ha, 0 to 100 scale, 0 no effect, 100 complete control, read-out: Plant response rating Corn
  plant injury at 500 g/ha: 10%
velvetleaf; Abutilon theophrasti, post-emergence, 125 g ai/ha, postemergence, read-out: Plant response rating (0 to 100), Velvetleaf
  pest or weed control at 125 g/ha: 75%
velvetleaf; Abutilon theophrasti, post-emergence, Postemergence, 31 g ai/ha, scale 0 to 100 (0 no effect, 100 complete control), 13 to 15 days, read-out: Plant response rating, Velvetleaf
  pest or weed control at 31 g/ha: 45%
velvetleaf; Abutilon theophrasti, post-emergence, Postemergence, 62 g ai/ha, scale 0 to 100 (0 no effect, 100 complete control), read-out: Plant response rating, Velvetleaf
  pest or weed control at 62 g/ha: 65%
morningglory; Ipomoea, post-emergence, 240 h, 125 g ai/ha, read-out: Plant response rating, Morningglory
  pest or weed control at 125 g/ha: 90%
morningglory; Ipomoea, post-emergence, 240 h, 500 g ai/ha, read-out: Plant response rating, Morningglory
  pest or weed control at 500 g/ha: 100%
chickweed; Stellaria media, post-emergence, 16 g ai/ha, postemergence, visual rating, scale 0 to 100 (0 no effect, 100 complete control), 13 to 15 days, read-out: Chickweed plant response rating
  pest or weed control at 16 g/ha: 50%
chickweed; Stellaria media, post-emergence, 125 g ai/ha, postemergence, read-out: Plant response rating (0 to 100), Chickweed
  pest or weed control at 125 g/ha: 70%
chickweed; Stellaria media, post-emergence, Postemergence, 31 g ai/ha, scale 0 to 100 (0 no effect, 100 complete control), 13 to 15 days, read-out: Plant response rating, Chickweed
  pest or weed control at 31 g/ha: 60%
chickweed; Stellaria media, post-emergence, Postemergence, 62 g ai/ha, scale 0 to 100 (0 no effect, 100 complete control), read-out: Plant response rating, Chickweed
  pest or weed control at 62 g/ha: 65%
Giant foxtail; Setaria faberi, post-emergence, 240 h, 125 g ai/ha, read-out: Plant response rating, Foxtail, Giant
  pest or weed control at 125 g/ha: 80%
Giant foxtail; Setaria faberi, post-emergence, 240 h, 500 g ai/ha, read-out: Plant response rating, Foxtail, Giant
  pest or weed control at 500 g/ha: 90%
Italian ryegrass; Lolium multiflorum, post-emergence, 125 g ai/ha, postemergence, read-out: Plant response rating (0 to 100), Ryegrass, Italian
  pest or weed control at 125 g/ha: 5%
Italian ryegrass; Lolium multiflorum, post-emergence, Postemergence, 31 g ai/ha, scale 0 to 100 (0 no effect, 100 complete control), 13 to 15 days, read-out: Plant response rating, Ryegrass, Italian
  pest or weed control at 31 g/ha: 0%
Italian ryegrass; Lolium multiflorum, post-emergence, Postemergence, 62 g ai/ha, scale 0 to 100 (0 no effect, 100 complete control), read-out: Plant response rating, Ryegrass, Italian
  pest or weed control at 62 g/ha: 20%
pigweed; Amaranthus retroflexus, post-emergence, 125 g ai/ha, postemergence, read-out: Plant response rating (0 to 100), Pigweed
  pest or weed control at 125 g/ha: 75%
pigweed; Amaranthus retroflexus, post-emergence, Postemergence, 31 g ai/ha, scale 0 to 100 (0 no effect, 100 complete control), 13 to 15 days, read-out: Plant response rating, Pigweed
  pest or weed control at 31 g/ha: 60%
pigweed; Amaranthus retroflexus, post-emergence, Postemergence, 62 g ai/ha, scale 0 to 100 (0 no effect, 100 complete control), read-out: Plant response rating, Pigweed
  pest or weed control at 62 g/ha: 65%

## O=Cc1cccc(Oc2ncc(I)cn2)c1-n1cc(Br)cn1 [Compound 172]
Large (Lg) crabgrass; [1]
  Crabgrass, Large plant response rating: 20
Large (Lg) crabgrass; [2]
  Plant response rating, Crabgrass, Large: 30
kochia; 8 g ai/ha, postemergence
  Plant response rating (0 to 100), Kochia: 0
kochia; 16 g ai/ha, postemergence
  Plant response rating (0 to 100), Kochia: 0
kochia; [3]
  Kochia plant response rating: 0
kochia; [6]
  Plant response rating, Kochia: 30
corn; [1]
  Corn plant response rating: 0
corn; [2]
  Plant response rating, Corn: 20
velvetleaf; 8 g ai/ha, postemergence
  Plant response rating (0 to 100), Velvetleaf: 5
velvetleaf; 16 g ai/ha, postemergence
  Plant response rating (0 to 100), Velvetleaf: 5
velvetleaf; [3]
  Velvetleaf plant response rating: 10
velvetleaf; [6]
  Plant response rating, Velvetleaf: 10
morningglory; 125 g ai/ha
  Morningglory plant response rating: 80
morningglory; 500 g ai/ha
  Plant response rating, Morningglory: 90
chickweed; 8 g ai/ha, postemergence
  Plant response rating (0 to 100), Chickweed: 0
chickweed; 16 g ai/ha, postemergence
  Plant response rating (0 to 100), Chickweed: 0
chickweed; [3]
  Chickweed plant response rating: 50
chickweed; [6]
  Plant response rating, Chickweed: 70
Giant foxtail; 125 g ai/ha
  Foxtail, Giant plant response rating: 0
Giant foxtail; 500 g ai/ha
  Plant response rating, Foxtail, Giant: 20
Italian ryegrass; 8 g ai/ha, postemergence
  Plant response rating (0 to 100), Ryegrass, Italian: 0
Italian ryegrass; 16 g ai/ha, postemergence
  Plant response rating (0 to 100), Ryegrass, Italian: 0
Italian ryegrass; [3]
  Ryegrass, Italian plant response rating: 0
Italian ryegrass; [6]
  Plant response rating, Ryegrass, Italian: 5
pigweed; 8 g ai/ha, postemergence
  Plant response rating (0 to 100), Pigweed: 5
pigweed; 16 g ai/ha, postemergence
  Plant response rating (0 to 100), Pigweed: 10
pigweed; [3]
  Pigweed plant response rating: 10
pigweed; [6]
  Plant response rating, Pigweed: 5
